Values joined by “and” are separate entries in the source; they are usually repeats but may differ in a detail not shown here. Equal values may be shown once. Read-outs that look alike come from different tables or passages of the source. Marks after values point to notes of the source that are not given here.
Legend:
[1] = system: AR+ prostate carcinoma cell line (LNCaP) prostate cancer spheroids; assay: Multicellular tumor spheroid growth inhibition (SGI), LNCaP; type: cell-based, human
Procedure: (§1) The purpose of this example was to evaluate the combination effect of PF-07220060 and endocrine therapy in multicellular tumor spheroid growth inhibition (SGI). To model the characteristics and cellular behavior of human tumors, the activity of PF-07220060 was evaluated in three dimensional MCTS models of HR+ breast cancer and AR+ prostate cancer following PF-07220060 treatment as a single agent and in combination with fulvestrant • 1) in HR+, HER2-T47D breast cancer spheroids. • 2) in HR+, HER2+BT474 breast cancer spheroids, • 3) in BT474 spheroids, and • 4) in AR+ prostate carcinoma cell line (LNCaP) prostate cancer spheroids. Spheroids were treated with increasing concentrations of 100, 300, or 1000 nM PF-07220060 and compared to palbociclib at the clinically relevant concentration of 30 nM.

[2] = system: HR+, HER2- T47D breast cancer spheroids; assay: Multicellular tumor spheroid growth inhibition (SGI), T47D; type: cell-based, human
Procedure: as §1, with “nM. Single agent PF-07220060 inhibited spheroid growth in a dose-dependent manner, with highest efficacy (86% SGI over the duration of treatment with 1000 nM) shown in the T47D BC spheroid model (Table 1). Combining 100 nM PF-07220060 with 1 nM fulvestrant in T47D cells increased SGI to 96% compared to either single agent alone (57 to 67% SGI with 100 nM PF-07220060 or 79% SGI with fulvestrant) (Table 1). BT474 spheroids were relatively less sensitive to PF-07220060 resulting in 52% SGI at 1000 nM.” for “nM.”

[3] = Phase 1/1b clinical trial: plasma pharmacokinetics of PF-07220060; type: in vivo, human; settings: for Cmax / AUC / Tmax / half-life: human, plasma, po; for Tmax: median, read-out: Tmax; for half-life: arithmetic mean
Procedure: Oral PF-07220060 was administered with at least 8 oz (240 mL) of water on an empty stomach (except during the food effect evaluation on Day-7 in Part 1D). No food or liquids other than water was consumed for 2 hours before and 1 hour following each dose throughout the study for BID dosing. No food or liquids other than water was consumed for 2 hours before and 2 hours after each dose throughout the study for QD dosing.
In the ongoing Phase 1/1b Study, as of Aug. 30, 2022, preliminary PK data for PF-07220060 as monotherapy (Part 1A) and in combination with endocrine therapy (Part 1B and Part 1C) was available from 60 participants with advanced solid tumors. PF-07220060 was administered orally as a single agent at doses ranging from 100 to 500 mg BID, and in combination with either letrozole or fulvestrant at 300 to 400 mg BID. Available plasma concentration-time data of PF-07220060 were analyzed using noncompartmental methods.
Preliminary noncompartmental PK analysis was conducted based on available samples collected from participants in the Study. […] Table 4 presents the summary of PK parameters for PF-07220060 as monotherapy, and in combination with letrozole or fulvestrant.

[4] = 200 mg BID oral monotherapy (Part 1A), C1D15, geometric mean
[5] = 300 mg BID oral + fulvestrant (Part 1C), C1D15, geometric mean
[6] = 300 mg BID oral + letrozole (Part 1B), C1D15, geometric mean
[7] = 300 mg BID oral monotherapy (Part 1A), C1D15, geometric mean
[8] = 400 mg BID oral + fulvestrant (Part 1C), C1D15, geometric mean
[9] = 400 mg BID oral + letrozole (Part 1B), C1D15, geometric mean
[10] = 400 mg BID oral monotherapy (Part 1A), C1D15, geometric mean

CC(C)n1c(C(C)(C)O)nc2c(F)cc(-c3nc(N[C@@H]4CCOC[C@H]4O)ncc3Cl)cc21 [PF-07220060, 1,5-anhydro-3-({5-chloro-4-[4-fluoro-2-(2-hydroxypropan-2-yl)-1-(propan-2-yl)-1H-benzimidazol-6-yl]pyrimidin-2-yl}amino)-2,3-dideoxy-D-threo-pentitol]
SGI ([1]; 100 nM single agent): 27% | SGI ([1]; 300 nM single agent): 38; 38% | SGI ([1]; 1000 nM single agent): 53% | SGI ([2]; 100 nM single agent): 57% and 67% | SGI ([2]; 300 nM single agent): 74% | SGI ([2]; 1000 nM single agent): 86% | CL/F ([3]; 100 mg BID oral monotherapy (Part 1A), C1D15, geometric mean, n = 2): 24.61 L/h | CL/F [3, 4]: 31.41 L/h | Cmin [3, 4]: 440 ng/mL | CL/F [3, 5]: 38.02 L/h | Cmin [3, 5]: 347.4 ng/mL | CL/F [3, 6]: 28.95 L/h | Cmin [3, 6]: 487.1 ng/mL | CL/F [3, 7]: 37.06 L/h | Cmin [3, 7]: 470.4 ng/mL | CL/F [3, 8]: 41.86 L/h | Cmin [3, 8]: 563.3 ng/mL | CL/F [3, 9]: 34.9 L/h | Cmin [3, 9]: 728.3 ng/mL | CL/F [3, 10]: 49.98 L/h | Cmin [3, 10]: 450.3 ng/mL | Cmin ([3]; 500 mg BID oral monotherapy (Part 1A), C1D15, geometric mean): 848.8 ng/mL | CL/F ([3]; 500 mg BID oral monotherapy (Part 1A), C1D15, n = 1): 40.1^a L/hr | Cmax ([3]; 100 mg, 100 mg BID oral monotherapy (Part 1A), C1D1 post first dose, geometric mean): 280 ng/mL | AUC ([3]; 100 mg, 100 mg BID oral monotherapy (Part 1A), C1D1 post first dose, geometric mean, read-out: AUC12): 1780 ng·h/mL | Tmax ([3]; 100 mg, 100 mg BID oral monotherapy (Part 1A), C1D1 post first dose): 2 h | AUC ([3]; 100 mg, 100 mg BID oral monotherapy (Part 1A), C1D15, geometric mean, n = 2, read-out: AUCtau): 4060 ng·h/mL | Cmax ([3]; 100 mg, 100 mg BID oral monotherapy (Part 1A), C1D15 post multiple doses, geometric mean): 617 ng/mL | Tmax ([3]; 100 mg, 100 mg BID oral monotherapy (Part 1A), C1D15 post multiple doses): 1 h | Cmax ([3]; 200 mg, 200 mg BID oral monotherapy (Part 1A), C1D1 post first dose, geometric mean): 454 ng/mL | AUC ([3]; 200 mg, 200 mg BID oral monotherapy (Part 1A), C1D1 post first dose, geometric mean, read-out: AUC12): 2330 ng·h/mL | Tmax ([3]; 200 mg, 200 mg BID oral monotherapy (Part 1A), C1D1 post first dose): 3.9 h | half-life ([3]; 200 mg, 200 mg BID oral monotherapy (Part 1A), C1D15): 5.1 h | AUC ([3]; 200 mg, 200 mg BID oral monotherapy (Part 1A), C1D15, geometric mean, read-out: AUCtau): 6370 ng·h/mL | Cmax ([3]; 200 mg, 200 mg BID oral monotherapy (Part 1A), C1D15 post multiple doses, geometric mean): 1010 ng/mL | Tmax ([3]; 200 mg, 200 mg BID oral monotherapy (Part 1A), C1D15 post multiple doses): 2.5 h | Cmax ([3]; 300 mg BID oral + fulvestrant (Part 1C), C1D1 post first dose, geometric mean): 849 ng/mL | AUC ([3]; 300 mg BID oral + fulvestrant (Part 1C), C1D1 post first dose, geometric mean, read-out: AUC12): 6130 ng·h/mL | Tmax ([3]; 300 mg BID oral + fulvestrant (Part 1C), C1D1 post first dose): 2 h | half-life ([3]; 300 mg BID oral + fulvestrant (Part 1C), C1D15): 5.7 h | AUC ([3]; 300 mg BID oral + fulvestrant (Part 1C), C1D15, geometric mean, read-out: AUCtau): 7890 ng·h/mL | Cmax ([3]; 300 mg BID oral + fulvestrant (Part 1C), C1D15 post multiple doses, geometric mean): 1190 ng/mL

From US20250041298A1, “CDK4 INHIBITOR FOR THE TREATMENT OF CANCER” (Pfizer Inc., priority 2021, published 2025)
